Experimental data as given in US11407812B2, “Targeted expression of chloride channels and methods of use thereof” (GOLEINI INC., priority 2015, dated 2022).

Legend:
[1] = molecular target: T1, GlyR α-subunit (hGlyRa1) (Homo sapiens, UniProt P23415); experiment: FLIPR membrane potential assay in HEK-293 cells expressing hGlyRa1; type: cell-based
T1 construct: P2A-mEYFP (C); host or cells: HEK-293
T1 sequence (P23415 29-457): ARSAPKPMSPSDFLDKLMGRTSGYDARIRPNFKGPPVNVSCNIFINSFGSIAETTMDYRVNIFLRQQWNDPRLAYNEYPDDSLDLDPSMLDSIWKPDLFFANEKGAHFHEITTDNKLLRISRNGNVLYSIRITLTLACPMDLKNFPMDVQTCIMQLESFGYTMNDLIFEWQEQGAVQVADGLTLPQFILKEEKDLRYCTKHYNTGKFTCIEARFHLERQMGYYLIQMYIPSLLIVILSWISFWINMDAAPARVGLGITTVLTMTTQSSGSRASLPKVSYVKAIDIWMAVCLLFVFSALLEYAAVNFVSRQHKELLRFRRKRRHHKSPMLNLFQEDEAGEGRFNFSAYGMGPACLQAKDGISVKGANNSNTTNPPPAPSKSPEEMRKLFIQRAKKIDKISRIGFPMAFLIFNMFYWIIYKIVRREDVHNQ
Method: For FlexStation assays, HEK-293 cells were plated at 20,000 cells/well, with a plating volume of 100 μl/well, in a black-sided/clear-bottomed 96-well imaging plate (BD Falcon #353219). For transfection, […] in 750 μl Opti-MEM (Gibco 31985-070) was mixed with 30 μl ExpressFect in 750 μl Opti-MEM, pre-incubated for 20 minutes, and then added at 15 μl/well to cells containing 100 μl fresh culture media. Cells were transfected 24 hours after plating and assayed 48 hours after transfection.
A fluorescence-based assay employing the FLIPR Membrane Potential Assay Kit, BLUE formulation, (Molecular Devices, #R8042) was used to detect voltage changes across the cell membrane. Dye loading buffer was prepared according to package literature. Specifically, the contents of one vial of BLUE reagent was dissolved with 5 ml of 1×Assay Buffer, followed by a wash of the vial with another 5 ml of 1× Assay Buffer, to yield a total volume of 10 ml of dye loading buffer. Unused portions of dye loading buffer were stored at −20° C. and used within 5 days. […] Cells were then loaded with 50 μl of Blue dye loading buffer and incubated for 40 min at 37° C./5% CO2. The signal was detected using the FlexStation 3 multimode benchtop microplate reader operated by SoftMax Pro Data Acquisition & Analysis Software (Molecular Devices). Excitation and emission wavelengths were set at 530 nm and 565 nm, respectively, with an emission cut-off of 550 nm. Plate reads were performed at 30° C. with a ‘Low PMT’ setting. […] Other FlexStation parameters included a pipette height of 130 an initial well volume of 100 μl, a transfer volume of 50 μl (therefore, drug concentrations were prepared 3×), and a transfer rate setting of 2, corresponding to ˜31 μl/sec.

[2] = in vivo; cited from earlier work
[3] = system: GlyR; conditions: read-out: EC50 for gating of GlyR; cited from earlier work
[4] = system: SNI model of neuropathic pain in the rat; experiment: Spared nerve injury (SNI) model of neuropathic pain, von Frey withdrawal threshold (Example 5); type: in vivo; conditions: for withdrawal threshold / reduction of the allodynic response: Control vector animals
Description: Under isoflurane anesthesia the skin on the lateral surface of the thigh was incised and a section made directly through the biceps femoris muscle exposing the sciatic nerve and its three terminal branches: the sural, common peroneal and tibial nerves. The SNI procedure comprised an axotomy and ligation of the tibial and common peroneal nerves leaving the sural nerve intact. The common peroneal and the tibial nerves were tight-ligated with 5.0 silk and sectioned distal to the ligation, removing 2±4 mm of the distal nerve stump. Great care was taken to avoid any contact with or stretching of the intact sural nerve. Muscle and skin were closed in two layers (Decosterd I. and Woolf C. (2000) Pain 87(2):149-158). In the current study this was considered as Day 0.
Testing was performed during the day portion of the circadian cycle only (06:00-18:00 h). Rats were placed in an inverted plastic cage on an elevated wire mesh platform which allowed full access to the paws. Behavioral accommodation was allowed for approximately 15 min, until cage exploration and major grooming activities ceased. The area tested was the lateral region of the plantar left hind paw, in the sural nerve distribution, avoiding the less sensitive tori (footpads). The paw was touched with 1 of a series of 8 von Frey filaments with logarithmically incremental stiffness (0.41, 0.70, 1.20, 2.00, 3.63, 5.50, 8.50, and 15.10 g) (Stoelting). The von Frey filament was presented perpendicular to the plantar surface with sufficient force to cause slight buckling against the paw, and held for approximately 6-8 s. Stimuli were presented at intervals of several seconds, allowing for apparent resolution of any behavioral responses to previous stimuli. A positive response was noted if the paw was sharply withdrawn. Flinching immediately upon removal of the hair was also considered a positive response. Ambulation was considered an ambiguous response, and in such cases the stimulus was repeated. Based on observations on normal, un-operated rats, the cut-off of a 15.10 g filament (˜10% of the body weight of the smaller rats) was selected as the upper limit for testing, since stiffer filaments tended to raise the entire limb rather than to buckle, substantially changing the nature of the stimulus (Chaplan S. et al. (1994) J Neurosci Methods 53(1): 55-63).
One day prior to the surgery (Day −1) animals were tested for their baseline response to mechanical stimulation (mechanical sensitivity). At 10 days post-surgery all animals were re-tested for their mechanical sensitivity.
At days 13, 22 and 35 post-treatment (days 23, 32 and 45 post-surgery) animals were re-evaluated for their mechanical sensitivity. For all of these measurements the operator was blinded as to the identity of the animals.
At day 36 post-treatment (day 46 post-surgery) the animals were dosed with gabapentin (100 mg/kg: IP). At 1 hour and 2 hours post-gabapentin administration the animals were evaluated for their sensitivity to mechanical stimulation.
The 50% withdrawal threshold was determined using the up-down method of Dixon (Chaplan S. et al. (1994) J Neurosci Methods 53(1):55-63; Dixon W J. (1980) Ann. Rev. Pharmacol. Toxicol. 20:441-462). In this paradigm, testing was initiated with the 2.0 g filament, in the middle of the series. Stimuli were always presented in a consecutive fashion, whether ascending or descending. In the absence of a paw withdrawal response to the initially selected filament, a stronger stimulus was presented; in the event of paw withdrawal, the next weaker stimulus was chosen. According to Dixon, optimal threshold calculation by this method requires 6 responses in the immediate vicinity of the 50% threshold. Since the threshold is not known, strings of similar responses may be generated as the threshold is approached from either direction.

[5] = molecular target: T2, L9′A mutated GluCl α-subunit (GluCl*) (Caenorhabditis elegans, UniProt G5EBR3, L315A); type: cell-based; conditions: increasing doses of ivermectin, cells expressing GluCl*
T2 construct: expressed in transfected cells; host or cells: HEK-293

[6] = system: wild-type α-subunit of the GluCl glutamate receptor; experiment: FLIPR membrane potential assay in HEK-293 cells expressing wild-type GluCl α-subunit; type: cell-based, Caenorhabditis elegans
Method: Cells were transfected 24 hours after plating and assayed 48 hours after transfection.
A fluorescence-based assay employing the FLIPR Membrane Potential Assay Kit, BLUE formulation, (Molecular Devices, #R8042) was used to detect voltage changes across the cell membrane. Dye loading buffer was prepared according to package literature. Specifically, the contents of one vial of BLUE reagent was dissolved with 5 ml of 1× Assay Buffer, followed by a wash of the vial with another 5 ml of 1× Assay Buffer, to yield a total volume of 10 ml of dye loading buffer. Unused portions of dye loading buffer were stored at −20° C. and used within 5 days. For the functional assay, culture medium was removed from the cells and replaced with 50 DMEM. Cells were then loaded with 50 μl of Blue dye loading buffer and incubated for 40 min at 37° C./5% CO2. The signal was detected using the FlexStation 3 multimode benchtop microplate reader operated by SoftMax Pro Data Acquisition & Analysis Software (Molecular Devices). Excitation and emission wavelengths were set at 530 nm and 565 nm, respectively, with an emission cut-off of 550 nm. Plate reads were performed at 30° C. with a ‘Low PMT’ setting. Run times, of which the first 20 s measured basal fluorescence, were 300 s for ivermectin-induced signals. […]

[7] = system: Human airway smooth muscle (HASM) cells; experiment: Histamine-induced increase in intracellular Ca++ (Fluo 8); type: cell-based
Method: Human airway smooth muscle (HASM) cells were derived from tracheas obtained from the National Disease Research Interchange (Philadelphia, Pa., USA) and from the International Institute for the Advancement of Medicine (Edison, N.J., USA). The cells were cultured in Ham's F-12 medium supplemented with 10% FBS, 100 U mL^−1 penicillin, 0.1 mg mL^−1 streptomycin and 2.5 mg mL^−1 amphotericin B, and this medium was replaced every 72 h. HASM cells in subculture during passages 1-5 were used, because these cells retain the expression of native contractile protein. The HASM cells were derived from healthy normal donors.
Cells were serum starved for 24 hr and loaded with Fluo 8 calcium sensing dye for 1 hr prior to stimulation with histamine. […] All data from both studies is expressed as relative fluorescent units.

[8] = system: HEK-293 cells; type: cell-based, human; conditions: 48 hours post-transfection
Method: […]. […] […]. […] Five separate wells were evaluated for each condition (un-transfected, mock-transfected, GluCl and GluCl*).

T2 sequence (G5EBR3 21-461 L315A): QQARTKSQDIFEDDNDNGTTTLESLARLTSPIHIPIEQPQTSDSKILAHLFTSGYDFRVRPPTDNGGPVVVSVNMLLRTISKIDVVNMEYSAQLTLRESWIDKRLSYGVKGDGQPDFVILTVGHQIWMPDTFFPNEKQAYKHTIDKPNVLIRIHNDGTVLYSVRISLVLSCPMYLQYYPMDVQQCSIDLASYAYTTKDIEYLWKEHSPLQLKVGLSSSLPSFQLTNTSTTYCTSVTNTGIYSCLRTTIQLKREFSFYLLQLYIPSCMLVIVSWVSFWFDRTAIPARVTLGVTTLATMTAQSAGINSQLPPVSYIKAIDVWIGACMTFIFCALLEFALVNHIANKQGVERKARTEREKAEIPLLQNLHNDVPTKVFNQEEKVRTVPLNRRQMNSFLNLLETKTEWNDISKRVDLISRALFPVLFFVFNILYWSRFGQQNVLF

**Q.** Which “effect on membrane potential” value ([1]; taurine 1 μM to 1 mM, monomeric hGlyRa1 channel) does the source give for `NCCS(=O)(=O)O` [Taurine] here?
**A.** no direct effect

**Q.** With `NCC(=O)O` [Glycine] as the molecule, how does the “EC100 of change in membrane potential” value ([1]; HEK-293 cells expressing hGlyRa1) read?
**A.** approximately 300 μM

**Q.** What about the “half-life in the body” value [2] of the same molecule?
**A.** 26 to 245 min

**Q.** And the EC50 [3]?
**A.** ~100 µM

**Q.** Which results are given for `NCC1(CC(=O)O)CCCCC1` [Gabapentin]?
**A.** withdrawal threshold ([4]; 1 hour post dose, 100 mg/kg IP): 3.44 ± 0.36 g; reduction of the allodynic response ([4]; 1 hour post-dose, 100 mg/kg IP): 25%; withdrawal threshold ([4]; 2 hours post dose, 100 mg/kg IP): 4.15 ± 0.19 g; reduction of the allodynic response ([4]; 2 hours post-dose, 100 mg/kg IP): 44%; withdrawal threshold ([4]; pre-dose, day 46 post-surgery): 2.46 ± 0.49 g; effect on response to mechanical stimulation in animals previously treated with GTX-01* ([4]; rat, in vivo): no effect

**Q.** Which results are given for Ivermectin?
**A.** effect of ivermectin on change in membrane potential [5]: did not augment the change in membrane potential; EC50 ([6]; HEK-293 cells expressing wild-type GluCl α-subunit alone, 4.5 minutes post addition, read-out: EC50 of change in membrane potential): 0.147 µM

B1: hGlyRa1 (protein, listed as Homo sapiens)
chain: MYSFNTLRLYLWETIVFFSLAASKEAEAARSAPKPMSPSDFLDKLMGRTSGYDARIRPNFKGPPVNVSCNIFINSFGSIAETTMDYRVNIFLRQQWNDPRLAYNEYPDDSLDLDPSMLDSIWKPDLFFANEKGAHFHEITTDNKLLRISRNGNVLYSIRITLTLACPMDLKNFPMDVQTCIMQLESFGYTMNDLIFEWQEQGAVQVADGLTLPQFILKEEKDLRYCTKHYNTGKFTCIEARFHLERQMGYYLIQMYIPSLLIVILSWISFWINMDAAPARVGLGITTVLTMTTQSSGSRASLPKVSYVKAIDIWMAVCLLFVFSALLEYAAVNFVSRQHKELLRFRRKRRHHKSPMLNLFQEDEAGEGRFNFSAYGMGPACLQAKDGISVKGANNSNTTNPPPAPSKSPEEMRKLFIQRAKKIDKISRIGFPMAFLIFNMFYWIIYKIVRREDVHNQ
**Q.** For B1, which “unstimulated change in membrane potential” value [1] is on record?
**A.** no unstimulated change in membrane potential

**Q.** What about the “effect on histamine-induced increase in intracellular Ca” value [7] of the same molecule?
**A.** antagonized

B2: wild-type GluCl α-subunit: fluorescently tagged Caenorhabditis elegans GluCl α-subunit, wild type, expressed from plasmid (protein, UniProt G5EBR3 21-461, looked up)
Glutamate-gated chloride …: QQARTKSQDIFEDDNDNGTTTLESLARLTSPIHIPIEQPQTSDSKILAHLFTSGYDFRVRPPTDNGGPVVVSVNMLLRTISKIDVVNMEYSAQLTLRESWIDKRLSYGVKGDGQPDFVILTVGHQIWMPDTFFPNEKQAYKHTIDKPNVLIRIHNDGTVLYSVRISLVLSCPMYLQYYPMDVQQCSIDLASYAYTTKDIEYLWKEHSPLQLKVGLSSSLPSFQLTNTSTTYCTSVTNTGIYSCLRTTIQLKREFSFYLLQLYIPSCMLVIVSWVSFWFDRTAIPARVTLGVTTLLTMTAQSAGINSQLPPVSYIKAIDVWIGACMTFIFCALLEFALVNHIANKQGVERKARTEREKAEIPLLQNLHNDVPTKVFNQEEKVRTVPLNRRQMNSFLNLLETKTEWNDISKRVDLISRALFPVLFFVFNILYWSRFGQQNVLF
**Q.** Which results are given for B2?
**A.** cell viability [8]: 91.8%; unstimulated change in membrane potential ([6]; no agonist, monomeric expression in HEK-293): no unstimulated change in membrane potential
